Experimental data reported in the supplement of paper PMC7017272.
± gives the standard deviation of the averaged measurements.

Legend:
Conditions in all cases: treatment time: 3 days
UT-SCC-81 [1] = test: relative IC50 (midpoint of the fitted curve; maximal inhibition may be below 50%); higher = less potent
Procedure, shortened: (§1)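 Viability of HPV-negative HNSCC cell lines was measured by CellTiter-Glo 2.0 luminescence. Cells were seeded at 500 cells/well in 384-well plates on plastic, on Matrigel- or Myogel-coated wells (500 µg/mL), or embedded in Matrigel or Myogel plus rat collagen I, then given compounds at five 10-fold concentrations for 3 days, with signals normalised to vehicle (0.1% DMSO) and cell-killing control wells. Fitting of percent-inhibition dose–response curves in the FIMM pipeline yielded IC50, maximal inhibition and drug sensitivity score.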

UT-SCC-24B [2] = test: as above
Procedure, shortened: as §1

UT-SCC-40 [3] = test: as above
Procedure, shortened: as §1

UT-SCC-28 = test: maximal % inhibition of viability relative to DMSO; higher = stronger effect
Procedure: (§2)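 HNSCC cell lines (500 cells/well, 384-well) were cultured on plastic, on top of (2D) or embedded (3D) in Matrigel or human leiomyoma matrix Myogel (500 ug/mL; Myogel 3D mixed with rat collagen I). Cells were treated for 3 days with 5 ten-fold concentrations of each drug, and viability was read by CellTiter-Glo. Viability was normalised to DMSO and benzethonium chloride controls and fitted with the FIMM DSRT pipeline to give IC50 (nM), maximal % inhibition and DSS. Suffixes _1/_2/_3 are replicates. Only inhibition-mode (IC50) fits are kept.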

UT-SCC-81 [4] = test: as above
Procedure: as §2

UT-SCC-44 = test: as above
Procedure: as §2

UT-SCC-42A = test: as above
Procedure: as §2

UT-SCC-14 = test: as above
Procedure: as §2

UT-SCC-24B [5] = test: as above
Procedure: as §2

UT-SCC-42B = test: as above
Procedure: as §2

UT-SCC-40 [6] = test: as above
Procedure: as §2

UT-SCC-73 = test: as above
Procedure: as §2

UT-SCC-8 = test: as above
Procedure: as §2

UT-SCC-106A = test: as above
Procedure: as §2

UT-SCC-24A = test: drug sensitivity score (DSS); higher = more sensitive
Procedure: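 HNSCC cell lines (500 cells/well, 384-well) were cultured on plastic, on top of (2D) or embedded (3D) in Matrigel or human leiomyoma matrix Myogel (500 ug/mL; Myogel 3D mixed with rat collagen I). Cells were treated for 3 days with 5 ten-fold concentrations of each drug, and viability was read by CellTiter-Glo. Suffixes _1/_2/_3 on drug names are replicates.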

[7] = culture condition: on top of Matrigel
[8] = culture condition: plastic 2D (no matrix)
[9] = culture condition: embedded in Myogel + collagen I
[10] = culture condition: embedded in Matrigel
[11] = culture condition: on top of Myogel

Cn1c(=O)c(F)c(Nc2ccc(I)cc2F)c2c(=O)n(C[C@@H](O)CO)cnc21 [TAK-733]
relative IC50 (UT-SCC-81 [1]; [7]): 0.00589 µM | relative IC50 (UT-SCC-81 [1]; [8]): 0.151 µM | relative IC50 (UT-SCC-24B [2]; [9]): 0.0627 µM | relative IC50 (UT-SCC-24B [2]; [7]): 0.0395 µM | relative IC50 (UT-SCC-40 [3]; [10]): 0.00268 µM | relative IC50 (UT-SCC-40 [3]; [9]): 0.00676 µM | relative IC50 (UT-SCC-40 [3]; [7]): 0.00429 µM | relative IC50 (UT-SCC-40 [3]; [11]): 0.0138 µM | relative IC50 (UT-SCC-40 [3]; [8]): 0.0106 µM | maximal % inhibition of viability (UT-SCC-28; [10]): 36.6 ± 7.2% | maximal % inhibition of viability (UT-SCC-28; [9]): 22.7 ± 21% | maximal % inhibition of viability (UT-SCC-28; [7]): 41.5 ± 1.7% | maximal % inhibition of viability (UT-SCC-28; [8]): 25.6 ± 1% | maximal % inhibition of viability (UT-SCC-81 [4]; [10]): 87.1 ± 4% | maximal % inhibition of viability (UT-SCC-81 [4]; [9]): 25 ± 12% | maximal % inhibition of viability (UT-SCC-81 [4]; [7]): 71.5 ± 6% | maximal % inhibition of viability (UT-SCC-81 [4]; [11]): 24.3 ± 5.5% | maximal % inhibition of viability (UT-SCC-81 [4]; [8]): 36.4 ± 2.3% | maximal % inhibition of viability (UT-SCC-44; [10]): 75.4 ± 0.62% | maximal % inhibition of viability (UT-SCC-44; [9]): 37.1 ± 8.1% | maximal % inhibition of viability (UT-SCC-44; [7]): 64.6 ± 10% | maximal % inhibition of viability (UT-SCC-44; [11]): 38.3 ± 4.8% | maximal % inhibition of viability (UT-SCC-44; [8]): 53.6 ± 3.3% | maximal % inhibition of viability (UT-SCC-42A; [10]): 57.9 ± 2.6% | maximal % inhibition of viability (UT-SCC-42A; [9]): 41.5 ± 27% | maximal % inhibition of viability (UT-SCC-42A; [7]): 59.9 ± 5.2% | maximal % inhibition of viability (UT-SCC-42A; [11]): 42.1 ± 5.3% | maximal % inhibition of viability (UT-SCC-42A; [8]): 52.7 ± 3.6% | maximal % inhibition of viability (UT-SCC-14; [10]): 42.3 ± 17% | maximal % inhibition of viability (UT-SCC-14; [9]): 31.8 ± 2.2% | maximal % inhibition of viability (UT-SCC-14; [7]): 33.3 ± 3.4% | maximal % inhibition of viability (UT-SCC-14; [11]): 28.6 ± 2.2% | maximal % inhibition of viability (UT-SCC-14; [8]): 20.4 ± 13% | maximal % inhibition of viability (UT-SCC-24B [5]; [10]): 67.3 ± 1.5% | maximal % inhibition of viability (UT-SCC-24B [5]; [9]): 67.2 ± 1.2% | maximal % inhibition of viability (UT-SCC-24B [5]; [7]): 64.3 ± 1.3% | maximal % inhibition of viability (UT-SCC-24B [5]; [11]): 55.5 ± 2.2% | maximal % inhibition of viability (UT-SCC-24B [5]; [8]): 79.9 ± 1.1% | maximal % inhibition of viability (UT-SCC-42B; [10]): 71.3 ± 7.9% | maximal % inhibition of viability (UT-SCC-42B; [7]): 54 ± 1.3% | maximal % inhibition of viability (UT-SCC-42B; [11]): 30.2 ± 3.9% | maximal % inhibition of viability (UT-SCC-42B; [8]): 38.4 ± 5.8% | maximal % inhibition of viability (UT-SCC-40 [6]; [10]): 78.2 ± 1.2% | maximal % inhibition of viability (UT-SCC-40 [6]; [9]): 64 ± 2.1% | maximal % inhibition of viability (UT-SCC-40 [6]; [7]): 72.9 ± 2.1% | maximal % inhibition of viability (UT-SCC-40 [6]; [11]): 51 ± 0.89% | maximal % inhibition of viability (UT-SCC-40 [6]; [8]): 53.7 ± 0.74% | maximal % inhibition of viability (UT-SCC-73; [10]): 79.1 ± 1.5% | maximal % inhibition of viability (UT-SCC-73; [9]): 48.3 ± 16% | maximal % inhibition of viability (UT-SCC-73; [7]): 74.1 ± 1% | maximal % inhibition of viability (UT-SCC-73; [11]): 59.9 ± 4.8% | maximal % inhibition of viability (UT-SCC-73; [8]): 68.4 ± 3.9% | maximal % inhibition of viability (UT-SCC-8; [10]): 74.4 ± 12% | maximal % inhibition of viability (UT-SCC-8; [9]): 35.5 ± 26% | maximal % inhibition of viability (UT-SCC-8; [7]): 65.3 ± 12% | maximal % inhibition of viability (UT-SCC-8; [11]): 46.8 ± 21% | maximal % inhibition of viability (UT-SCC-8; [8]): 56.1 ± 17% | maximal % inhibition of viability (UT-SCC-106A; [10]): 52.3 ± 2.4% | maximal % inhibition of viability (UT-SCC-106A; [9]): 19 ± 5.5% | maximal % inhibition of viability (UT-SCC-106A; [7]): 61.9 ± 4.9% | maximal % inhibition of viability (UT-SCC-106A; [11]): 17.8 ± 1.7% | maximal % inhibition of viability (UT-SCC-106A; [8]): 63.4 ± 1.2% | drug sensitivity score (UT-SCC-24A; [10]): 32.5 ± 1.7 DSS | drug sensitivity score (UT-SCC-24A; [9]): 17 ± 1.9 DSS | drug sensitivity score (UT-SCC-24A; [7]): 27 ± 0.5 DSS | drug sensitivity score (UT-SCC-24A; [11]): 9.37 ± 1.8 DSS | drug sensitivity score (UT-SCC-24A; [8]): 24.6 ± 0.76 DSS
